From patent US9886545B2, “Interrogatory cell-based assays and uses thereof” (Berg LLC, priority 2011, dated 2018)

How the values were obtained:
FASN = FASN (Mus musculus, UniProt P19096); details: Loftus et al 2000; cited from earlier work
[1] = tested on: LDHA expression in HepG2 cells; experiment: Wet lab validation of LDHA expression in HepG2 cells; type: cell-based; details: 50 uM or 100 uM CoQ10 for 24 or 48 hours
Procedure: Protein accession number P00338 is LDHA. Wet lab validation of proteomics data were performed for LDHA expression in HepG2 cells (see FIG. 20).

Bcl2 in melanoma cell = experiment: Bcl2 level in melanoma cell in the presence of VEGF; type: cell-based
Source text: (§1) The term “Multidimensional Intracellular Molecule (MIM)”, is an isolated version or synthetically produced version of an endogenous molecule that is naturally produced by the body and/or is present in at least one cell of a human. A MIM is capable of entering a cell and the entry into the cell includes complete or partial entry into the cell as long as the biologically active portion of the molecule wholly enters the cell. MIMs are capable of inducing a signal transduction and/or gene expression mechanism within a cell. MIMs are multidimensional because the molecules have both a therapeutic and a carrier, e.g., drug delivery, effect. MIMs also are multidimensional because the molecules act one way in a disease state and a different way in a normal state. For example, in the case of CoQ-10, administration of CoQ-10 to a melanoma cell in the presence of VEGF leads to a decreased level of Bcl2 which, in turn, leads to a decreased oncogenic potential for the melanoma cell. In contrast, in a normal fibroblast, co-administration of CoQ-10 and VEFG has no effect on the levels of Bcl2.

[2] = tested on: Bcl2 in normal fibroblast; experiment: Bcl2 level in normal fibroblast with VEGF co-administration; type: cell-based
Source text: as §1

[3] = tested on: human mitochondrial energy metabolism genes; experiment: Transcriptional profiling of diabetic cardiomyocytes; type: cell-based; details: diabetic cardiomyocytes treated with diabetic drug plus rescue molecule (T+R) vs untreated (UT)
Procedure: Human cardiomyocytes were subject to conditions simulating an diabetic environment experienced by the disease-relevant cells in vivo. Specifically, the cells were exposed to hyperglycemic conditions and hyperlipidemia conditions. The hyperglycemic condition was induced by culturing cells in media containing 22 mM glucose. The hyperlipidemia condition was induced by culturing the cells in media containing 1 mM L-carnitine, 0.7 mM Oleic acid and 0.7 mM Linoleic acid. […]
iProfiling of changes in total cellular protein expression by quantitative proteomics was performed for cell and media samples collected for each condition and with each “environmental perturbation”, i.e, diabetic drug treatment, Coenzyme Q10 treatment or both, using the techniques described above in the detailed description. […] Following data collection (Ct), the final fold change over control was determined using the δCt method as outlined in manufacturer's protocol. […] Functional assays such as Oxygen consumption rate OCR were measured by employing the Seahorse analyzer essentially as recommended by the manufacturer. OCR was recorded by the electrodes in a 7 μl chamber created with the cartridge pushing against the seahorse culture plate. […]

Sequence of FASN (P19096 whole entry): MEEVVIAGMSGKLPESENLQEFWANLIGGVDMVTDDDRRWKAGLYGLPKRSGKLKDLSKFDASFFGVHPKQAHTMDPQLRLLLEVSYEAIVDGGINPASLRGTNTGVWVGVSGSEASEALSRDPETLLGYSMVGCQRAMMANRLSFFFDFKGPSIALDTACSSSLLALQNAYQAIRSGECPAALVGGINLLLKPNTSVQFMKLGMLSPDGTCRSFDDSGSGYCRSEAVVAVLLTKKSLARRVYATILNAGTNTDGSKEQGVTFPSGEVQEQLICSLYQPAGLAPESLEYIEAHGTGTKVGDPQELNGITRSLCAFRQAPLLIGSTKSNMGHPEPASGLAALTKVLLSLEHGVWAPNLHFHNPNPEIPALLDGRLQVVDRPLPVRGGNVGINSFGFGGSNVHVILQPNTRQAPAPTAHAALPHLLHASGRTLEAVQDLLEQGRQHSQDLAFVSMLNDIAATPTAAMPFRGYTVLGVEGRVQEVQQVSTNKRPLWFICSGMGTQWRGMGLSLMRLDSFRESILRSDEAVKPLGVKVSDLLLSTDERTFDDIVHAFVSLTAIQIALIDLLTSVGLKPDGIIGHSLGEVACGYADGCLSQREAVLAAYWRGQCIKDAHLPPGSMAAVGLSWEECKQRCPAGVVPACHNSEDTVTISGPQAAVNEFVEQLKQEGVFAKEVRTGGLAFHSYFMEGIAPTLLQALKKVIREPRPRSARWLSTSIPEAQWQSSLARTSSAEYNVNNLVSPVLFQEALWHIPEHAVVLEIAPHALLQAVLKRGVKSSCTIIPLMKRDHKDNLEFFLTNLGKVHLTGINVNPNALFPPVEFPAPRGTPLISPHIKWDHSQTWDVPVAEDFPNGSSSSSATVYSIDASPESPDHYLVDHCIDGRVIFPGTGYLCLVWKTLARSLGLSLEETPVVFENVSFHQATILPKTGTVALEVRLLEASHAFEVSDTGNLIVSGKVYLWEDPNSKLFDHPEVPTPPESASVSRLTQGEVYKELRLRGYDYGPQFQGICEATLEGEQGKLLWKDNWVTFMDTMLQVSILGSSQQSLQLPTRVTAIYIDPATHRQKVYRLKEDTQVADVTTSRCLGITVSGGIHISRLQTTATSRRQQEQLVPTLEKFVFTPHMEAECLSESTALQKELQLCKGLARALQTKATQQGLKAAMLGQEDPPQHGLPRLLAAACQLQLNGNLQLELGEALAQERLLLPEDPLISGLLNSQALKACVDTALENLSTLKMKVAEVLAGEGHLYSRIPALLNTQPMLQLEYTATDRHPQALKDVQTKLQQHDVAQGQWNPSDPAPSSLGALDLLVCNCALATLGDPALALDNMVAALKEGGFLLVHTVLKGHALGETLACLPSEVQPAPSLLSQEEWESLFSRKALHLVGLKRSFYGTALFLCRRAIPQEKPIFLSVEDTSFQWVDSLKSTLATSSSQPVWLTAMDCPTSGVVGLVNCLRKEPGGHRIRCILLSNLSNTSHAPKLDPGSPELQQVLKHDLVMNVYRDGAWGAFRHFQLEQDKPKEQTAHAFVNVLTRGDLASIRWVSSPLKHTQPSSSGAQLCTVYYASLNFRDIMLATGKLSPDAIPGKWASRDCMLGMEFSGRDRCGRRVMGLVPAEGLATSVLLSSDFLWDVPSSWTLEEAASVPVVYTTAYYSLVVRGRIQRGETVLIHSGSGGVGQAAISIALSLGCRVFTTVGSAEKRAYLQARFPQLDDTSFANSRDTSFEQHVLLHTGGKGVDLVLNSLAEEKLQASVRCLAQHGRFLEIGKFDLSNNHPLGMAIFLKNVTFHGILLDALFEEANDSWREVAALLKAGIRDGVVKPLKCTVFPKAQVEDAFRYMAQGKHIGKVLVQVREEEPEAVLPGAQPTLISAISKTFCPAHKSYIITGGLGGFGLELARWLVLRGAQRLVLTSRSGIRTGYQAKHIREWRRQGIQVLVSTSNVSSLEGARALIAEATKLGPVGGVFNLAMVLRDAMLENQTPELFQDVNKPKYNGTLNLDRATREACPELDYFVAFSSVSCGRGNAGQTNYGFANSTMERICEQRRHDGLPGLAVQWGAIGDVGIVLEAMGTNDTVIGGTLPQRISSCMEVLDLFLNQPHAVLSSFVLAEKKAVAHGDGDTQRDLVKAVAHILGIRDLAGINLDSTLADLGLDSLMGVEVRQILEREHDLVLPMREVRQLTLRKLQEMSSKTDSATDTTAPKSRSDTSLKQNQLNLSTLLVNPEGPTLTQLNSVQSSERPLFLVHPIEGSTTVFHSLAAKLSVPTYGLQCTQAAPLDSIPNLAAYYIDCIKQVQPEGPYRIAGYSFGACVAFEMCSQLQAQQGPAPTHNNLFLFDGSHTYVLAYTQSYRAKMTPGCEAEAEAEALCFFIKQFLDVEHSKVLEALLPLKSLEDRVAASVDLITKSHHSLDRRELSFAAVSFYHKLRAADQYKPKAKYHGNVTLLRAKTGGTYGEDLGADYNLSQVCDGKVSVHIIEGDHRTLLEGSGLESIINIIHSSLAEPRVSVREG

Structure (SMILES)	food intake (FASN)	weight loss (FASN)	LDHA expression levels [1]	level of Bcl2 (Bcl2 in melanoma cell)	levels of Bcl2 [2]	gene expression and transcription of mitochondrial energy metabolism genes, rescue [3]	gene expression and transcription of mitochondrial energy metabolism genes, rescue ([3]; listed as R)
C=C1C(=O)OC(CCCCCCCC)C1C(=O)O (stereo not drawn) [C75]	reducing	effectuate weight loss					
C/C=C/C/C=C/CCC(=O)[C@H]1O[C@H]1C(N)=O [Cerulenin]	reducing	effectuate weight loss					
COC1=C(OC)C(=O)C(C/C=C(\C)CC/C=C(\C)CC/C=C(\C)CC/C=C(\C)CC/C=C(\C)CC/C=C(\C)CC/C=C(\C)CC/C=C(\C)CC/C=C(\C)CCC=C(C)C)=C(C)C1=O [Coenzyme Q10]			decreased	decreased	no effect	normalize	normalizes
